Data published in US12441777B2 (NXERA PHARMA UK LIMITED, priority 2018, dated 2025).

Key:
Mouse GLP-1R = biological target: T1, Mouse GLP-1R (Mus musculus, UniProt O35659); experiment: Functional antagonism of mouse GLP1 receptors, cAMP accumulation assay (HitHunter, CHO-K1 cells stably expressing mouse GLP-1R, Exendin-4 at EC80); assay type: cell-based; conditions: functional pKb from IC50 corrected by Cheng-Prusoff adaptation
T1 construct: expressed in transfected cells
T1 sequence (O35659 22-463): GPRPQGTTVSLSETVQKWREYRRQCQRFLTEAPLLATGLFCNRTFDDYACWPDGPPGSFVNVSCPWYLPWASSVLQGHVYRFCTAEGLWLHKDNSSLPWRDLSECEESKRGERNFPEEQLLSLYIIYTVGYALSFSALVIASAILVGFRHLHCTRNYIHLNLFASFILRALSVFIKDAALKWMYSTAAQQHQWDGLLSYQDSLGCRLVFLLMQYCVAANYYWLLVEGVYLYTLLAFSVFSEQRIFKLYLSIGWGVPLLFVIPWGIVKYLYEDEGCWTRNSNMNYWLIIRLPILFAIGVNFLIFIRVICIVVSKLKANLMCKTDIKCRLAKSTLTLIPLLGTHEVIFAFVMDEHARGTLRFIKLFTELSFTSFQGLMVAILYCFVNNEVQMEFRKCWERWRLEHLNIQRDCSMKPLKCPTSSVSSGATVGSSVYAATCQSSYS
Description: Final DMSO concentration in the assay was 1%. […] Calculated IC50 values were corrected for the agonist concentration using an adaptation of the Cheng-Prusoff equation to generate functional pKb values: […]

Human GLP-1R = biological target: T2, Human GLP-1R (Homo sapiens, UniProt P43220); experiment: Functional antagonism of human GLP1 receptors, cAMP accumulation assay (HiRange cAMP kit, HEK cells infected with GLP-1R Bacmam, GLP-1(7-36) amide at EC80); assay type: cell-based; conditions: functional pKb from IC50 corrected by Cheng-Prusoff adaptation, GLP-1(7-36) at EC80
T2 construct: expressed in transfected cells; host or cells: HEK cells infected with GLP-1R BacMam
T2 sequence (P43220 24-463): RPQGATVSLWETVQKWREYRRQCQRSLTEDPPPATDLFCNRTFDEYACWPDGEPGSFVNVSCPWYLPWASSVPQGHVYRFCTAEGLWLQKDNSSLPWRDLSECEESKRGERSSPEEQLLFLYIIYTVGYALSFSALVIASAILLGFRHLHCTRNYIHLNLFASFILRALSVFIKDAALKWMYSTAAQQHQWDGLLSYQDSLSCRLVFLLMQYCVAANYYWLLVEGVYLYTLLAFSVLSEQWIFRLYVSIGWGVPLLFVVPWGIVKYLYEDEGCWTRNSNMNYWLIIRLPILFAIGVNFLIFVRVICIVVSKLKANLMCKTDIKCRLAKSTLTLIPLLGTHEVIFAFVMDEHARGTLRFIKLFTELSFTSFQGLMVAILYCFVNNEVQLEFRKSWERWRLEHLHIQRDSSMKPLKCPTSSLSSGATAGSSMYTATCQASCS
Method: The method followed a two-step protocol provided in the kit. In brief, HEK cells infected with 1% v/v GLP-1R Bacmam for 24 h were harvested using cell dissociation solution (Gibco), centrifuged and resuspended in the assay buffer (HBSS (Lonza) supplemented with 0.5 mM IBMX (Tocris)). DMSO stock of test compounds were serially diluted in the assay buffer and added to 96-well half area white plates (Costar). Final DMSO concentration in the assay was 0.3%. 20K cells per well were added to plates followed by 30 min incubation (humidified air (5% CO2), 37° C.). […] Intracellular accumulation of cAMP was stopped by addition of the HTRF detection reagents in lysis buffer, provided in the kit. Following 1-hour incubation at RT, plates were read on Pherastar FS (BMG Labtech, Inc.) Dotmatics Studies software was used for fitting data to a four-parameter concentration response curve. Calculated IC50 values were corrected for the agonist concentration using an adaptation of the Cheng-Prusoff equation to generate functional pKb values: […]

exendin(9-39)amide [Ex 9-39]
Mouse GLP-1R antagonist cAMP fpKb (Mouse GLP-1R): 7.2
Human GLP-1R antagonist cAMP fpKb (Human GLP-1R): 7.8
